Entries after “also recorded” stand apart in the source; their conditions may differ.
What was measured:
[1] = previously shown; cited from earlier work
Excerpt: Since P10 aggregates into AF in vitro, we investigated whether the peptides probed with ProImmune REVEAL® binding assays were able to form amyloid aggregates as well. To address this question, we initially submitted the ten selected sequences of the P10 variants (V1, V3, V5, V6, V7, V10, V11, V14, V15 and V16) to Cordax, an amyloid structure predictor able to model a given structure into steric zippers common to amyloids. For most of these P10 variants, regardless of their SF, at least two types of consensus steric zippers encompassing the sequence ^7(H)TLAIR(Y)^13 were predicted. The exceptio ...

MHC-II alleles = details: cited from earlier work
Excerpt: (§1) In addition to peptide binding affinity, other properties to evaluate are their solubility and aggregation propensity. […] Many proteins and peptides in solution can aggregate into amyloid fibrils (AF), a type of aggregate that can accumulate in organs and tissues causing diseases such as Parkinson’s and Alzheimer’s. This is the case of P10 ([…]), ...

[2] = test system: Paracoccidioides brasiliensis; details: immunization, compared with full gp43; cited from earlier work
Excerpt: as §1

[3] = depends on peptide concentration, pH and temperature; cited from earlier work
Excerpt: In addition to peptide binding affinity, other properties to evaluate are their solubility and aggregation propensity. […] Many proteins and peptides in solution can aggregate into amyloid fibrils (AF), a type of aggregate that can accumulate in organs and tissues causing diseases such as Parkinson’s and Alzheimer’s. […] Here, we describe an additional layer of information that could be used to predict good and poor epitope-binders to MHC-II, which is its aggregation propensity. According to the Aggregation hypothesis of antigen selection as enunciated by Forsdyke, [54], homoaggregation of antigen ...

[4] = In vitro aggregation, Thioflavin-T (ThT) binding; type: physicochemical; details: 20 μM peptide in PBS pH 7.4, 37 °C, 18 h; ThT 50 μM, excitation 450 nm, emission 485 nm; in words, Fig. 6
Protocol: (§2) For in-vitro aggregation assays, P10 and a total of ten selected P10 variants were purchased from Genscript with purity above 95 % and diluted in DMSO (Sigma-Aldrich code D8418) 100 % to a final concentration of 5 mM (stock solution) and kept at −20 °C for storage.
(§3) P10 and its variants stock solutions were diluted in PBS at 20 μM; pH 7.4 at 37 °C for 18 h under agitation. To measure light scattering (LS), samples were excited at 320 nm while emission was collected at 320 nm in the spectrofluorometer Jasco FP8200 (Jasco Corp., Tokyo, Japan). Aliquots of the aggregation suspension were diluted in the presence of Thioflavin-T (Sigma-Aldrich code T3516) (ThT; 50 μM and peptide 20 μM), a specific fluorescent probe for AF. ThT fluorescence emission was measured at 485 nm by exciting the samples at 450 nm. Congo red (Sigma-Aldrich code C6767) binding assays, another amyloid specific probe, were performed according to Palhano [47]. The samples (50 μL) were centrifuged at 17,000 X g for 30 min, and the pellet was incubated with 10 µM Congo red solution for 5 min. The absorbance was measured at 540 and 477 nm and the fraction of bound Congo red was determined by the following formula [mol of bound Congo red/mol of protein = OD540/25,295 – OD477/46,306].

[5] = In vitro aggregation, Congo red (CR) binding; type: physicochemical; details: 20 μM peptide in PBS pH 7.4, 37 °C, 18 h; pellet (17,000 X g, 30 min) with 10 µM Congo red 5 min, absorbance 540 and 477 nm; in words, Fig. 6
Protocol: as §2, §3

[6] = Transmission electron microscopy (TEM) of aggregates; type: physicochemical; details: peptide in PBS, 18 h, 37 °C; negative staining 2 % uranyl acetate; 20 μM (Fig. 7 legend), 100 µM (method)
Protocol: […] of each peptide suspension (100 µM) was absorbed onto 200-mesh carbon-coated copper grids (Pelco, Ref: 01800 F) for 5 min and then blotted to remove excess material. Negative staining was performed by adding […] of 2 % (w/v) uranyl acetate. Samples were dried on air for 3 min. The grids were imaged with a Jeol 1200 electron microscope (Jeol Ltd.) operating at a 60 kV acceleration voltage.

[7] = In vitro aggregation, light scattering (LS); type: physicochemical; details: 20 μM peptide in PBS pH 7.4 from 5 mM DMSO stock, 37 °C, 18 h under agitation; excitation and emission 320 nm; in words, Fig. 6
Protocol: as §2, §3

Row | Sequence | Regions able to form steric zippers [1] | Binding to a set of MHC-II alleles (MHC-II alleles) | Protection of mice against Pb infection [2] | Aggregation in solution [3] | Thioflavin T (ThT) binding [4] | Congo red (CR) binding [5] | Morphology of aggregates by TEM [6] | Light scattering (LS) [7]
1 | QTLIAIHTLAIRYAN [Peptide P10] | ^2TLIAIH^7, ^3LIAIHT^8, ^4IAIHTL^9, ^7HTLAIR^12 and ^8TLAIRY^13 | nanomolar | protecting mice against Pb infection as effectively as using the full gp43 | aggregate into insoluble AF; also recorded: more prominent at neutral pH than at acidic pH | – | – | – | –
2 | QTLTAIHTLAIRYAN [Peptide V6] | – | – | – | – | did not bind ThT | bind CR | formed mature amyloid fibrils | –
3 | QGLKAIHTLAIRYAN [Peptide V10] | – | – | – | – | did not bind ThT | bind CR | formed mature amyloid fibrils | –
4 | QTYHAIHTLAIRYAN [Peptide V14] | – | – | – | – | – | – | ribbon-like appearance | –
5 | QTLLDIHTLAIRYAN [Peptide V1] | – | – | – | – | behaved like P10 | behaved like P10 | amyloid fibrils were observed | behaved like P10

Reference: publication PMC9986244, “Connection between MHC class II binding and aggregation propensity: The antigenic peptide 10 of Paracoccidioides brasiliensis as a benchmark study” (Computational and Structural Biotechnology Journal, 2023)
